Patent publication US12540118B2, “Dendrene amide compound, bactericide and use thereof” (Jiangsu Flag Chemical Industry Co., Ltd., priority 2020, dated 2026)
Like-named read-outs stand apart in the source and are kept apart here.

How the values were obtained:
[1] = target: T1, succinate dehydrogenase (Sus scrofa, UniProt A5GZW8+D0VWV4+Q007T0); assay: Enzyme activity assay, succinate dehydrogenase (DCIP reduction); type: biochemical, porcine; details: read-out: Inhibitors (10 μM, SQR)
T1 construct: isolated from porcine hearts; from tissue; host or cells: porcine heart
In short: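 Porcine heart succinate dehydrogenase (2 nM) in 100 mM sodium phosphate pH 7.4, 0.3 mM EDTA, 20 mM sodium succinate and 53 μM DCIP at 23° C with stirring. DCIP reduction followed at 600 nm (ε 21 mM^−1 cm^−1); linear slope minus baseline gives initial rate.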

[2] = system: Erysiphe graminis; assay: Erysiphe graminis potting method; type: in vivo; details: Blumeria graminis; 100 mg/L; read-out: Erysiphe graminis control rating
Description: The fungicidal activity of the control agents and target compounds are determined. The test and investigation method refers to SOP-SC-1116 Erysiphe graminis potting method in disinfectant rolls written by KANGZHUO and GUBAOGEN in “Standard operation specification for testing biological activity of pesticides”.

[3] = system: Sphaerotheca fuliginea; assay: Sphaerotheca fuliginea potting method; type: in vivo; details: Podosphaera fuliginea; 100 mg/L; read-out: Sphaerotheca fuliginea control rating
Description: The fungicidal activity of the control agents and target compounds are determined. The test and investigation method refers to SOP-SC-1101 sphaerotheca fuliginea potting method in disinfectant rolls written by KANGZHUO and GUBAOGEN in “Standard operation specification for testing biological activity of pesticides”.

[4] = system: Phytophthora infestans; type: cell-based
[5] = system: Sclerotinia sclerotiorum; assay: Mycelial growth rate method; type: cell-based
[6] = system: Gibberella zeae; type: cell-based
[7] = system: Rhizoctonia cerealis; assay: Mycelial growth rate method; type: cell-based
[8] = system: Alternaria alternata; assay: Mycelial growth rate method; type: cell-based
[9] = system: Alternaria solani; assay: Mycelial growth rate method; type: cell-based
[10] = system: Phytophthora capsici; assay: Mycelial growth rate method; type: cell-based
[11] = system: Fusarium wilt of water melon; assay: Mycelial growth rate method; type: cell-based
[12] = system: Corn big spot; assay: Mycelial growth rate method; type: cell-based
[13] = system: Sphaerotheca fuliginea; assay: Field test of sphaerotheca fuliginea; type: in vivo
Description: The test is carried out according to GB/T17980.30-2000 of pesticide field efficacy test guidelines. The survey method is to randomly take four points for each cell and survey all leaves of 2 plants per point. And investigating the sphaerotheca fuliginea incidence before the first application, and investigating the sphaerotheca fuliginea incidence 7 and 14 days after the second application respectively, and calculating the disease index and the controlling effect.

[14] = system: Fusarium fujikura; assay: Therapeutic activity against rice bakanae disease; type: in vivo; details: 5 μg/mL, solvent DMSO
Source text: (§1) Test of protective activity and therapeutic activity of Compound 1 against rice bakanae disease.
(§2) The test and investigation method refers to SOP-SC-1112 rice bakanae disease potting method in disinfectant rolls written by KANGZHUO and GUBAOGEN in “Standard operation specification for testing biological activity of pesticides”.
(§3) The phenamacril is a mainstream medicament for preventing and treating the rice bakanae disease at present, resistant strains are more and more along with long-time use, and […] strains showing sensitivity and one strain showing resistance to the […] are selected as test strains.
(§4) Four Fusarium fujikura SX18-32, SX18-50, SX18-59 and SX18-63 are selected for testing strains, and the current mainstream commercial bactericide phenamacril is selected as a positive control. Wherein SX18-32, SX18-50 and SX18-59 show sensitivity to phenamacril and SX18-63 show resistance to phenamacril.

[15] = system: Fusarium fujikura; assay: Protective activity against rice bakanae disease; type: in vivo; details: 5 μg/mL, solvent DMSO
Source text: as §1, §2, §3, §4

[16] = strain SX18-59 (S), listed as compound 1
[17] = strain SX18-63 (R), listed as compound 1

T1 sequence (Q0QF01 43-664 partner): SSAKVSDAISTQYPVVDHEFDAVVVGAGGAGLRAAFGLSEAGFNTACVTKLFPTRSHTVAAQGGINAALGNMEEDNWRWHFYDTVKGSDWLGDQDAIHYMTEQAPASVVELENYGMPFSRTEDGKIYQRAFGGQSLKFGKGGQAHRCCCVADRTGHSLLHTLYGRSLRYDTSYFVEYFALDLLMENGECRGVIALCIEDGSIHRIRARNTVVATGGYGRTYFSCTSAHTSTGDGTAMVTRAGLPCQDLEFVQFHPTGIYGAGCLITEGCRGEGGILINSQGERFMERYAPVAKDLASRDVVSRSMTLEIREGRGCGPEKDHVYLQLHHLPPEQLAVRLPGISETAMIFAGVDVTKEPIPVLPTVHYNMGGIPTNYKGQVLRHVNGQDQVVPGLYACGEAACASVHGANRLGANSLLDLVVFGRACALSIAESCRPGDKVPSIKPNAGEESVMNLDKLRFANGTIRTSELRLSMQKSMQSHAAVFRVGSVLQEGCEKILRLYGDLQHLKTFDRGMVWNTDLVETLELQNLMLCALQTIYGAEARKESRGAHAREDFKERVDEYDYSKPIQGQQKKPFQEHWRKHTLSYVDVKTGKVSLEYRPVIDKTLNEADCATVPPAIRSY
T1 sequence (Q007T0 29-280): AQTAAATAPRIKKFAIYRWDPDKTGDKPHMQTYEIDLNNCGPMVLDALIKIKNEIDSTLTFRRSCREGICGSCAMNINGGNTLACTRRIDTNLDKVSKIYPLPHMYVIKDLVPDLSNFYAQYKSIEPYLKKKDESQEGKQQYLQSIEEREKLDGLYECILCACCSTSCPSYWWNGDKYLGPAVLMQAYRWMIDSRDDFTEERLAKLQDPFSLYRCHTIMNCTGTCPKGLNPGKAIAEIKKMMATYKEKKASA
T1 sequence (D0VWV4 30-169): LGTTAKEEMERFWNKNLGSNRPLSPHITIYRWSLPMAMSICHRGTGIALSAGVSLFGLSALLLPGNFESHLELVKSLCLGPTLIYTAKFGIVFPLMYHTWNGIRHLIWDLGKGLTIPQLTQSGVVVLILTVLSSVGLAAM
T1 sequence (A5GZW8 57-159 limits assumed): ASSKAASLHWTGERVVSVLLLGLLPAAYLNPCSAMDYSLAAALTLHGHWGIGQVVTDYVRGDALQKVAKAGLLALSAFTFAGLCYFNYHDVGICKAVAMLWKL

C=C(CN(C(=O)c1c(C(F)F)nn(C)c1F)C1CC1)c1ccc(Cl)cc1Cl [Compound 1]
inhibition at 10 µM [1]: > 90% | pest or weed control at 100 µg/mL [2]: 80 to 100% | pest or weed control at 100 µg/mL [3]: 80 to 100% | Inhibition ratio (%) Phytophthora infestans ([4]; 1.5625 μg/mL): A (80% ≤ A ≤ 100%) | Inhibition ratio (%) Phytophthora infestans ([4]; 6.25 μg/mL): A (80% ≤ A ≤ 100%) | Inhibition ratio (%) Phytophthora infestans ([4]; 25 μg/mL): A (80% ≤ A ≤ 100%) | Inhibition ratio (%) Sclerotinia sclerotiorum ([5]; 1.5625 μg/mL): C (C <70%) | Inhibition ratio (%) Sclerotinia sclerotiorum ([5]; 6.25 μg/mL): A (80% ≤ A ≤ 100%) | Inhibition ratio (%) Sclerotinia sclerotiorum ([5]; 25 μg/mL): A (80% ≤ A ≤ 100%) | Inhibition ratio (%) Gibberella zeae ([6]; 1.5625 μg/mL): A (80% ≤ A ≤ 100%) | Inhibition ratio (%) Gibberella zeae ([6]; 6.25 μg/mL): A (80% ≤ A ≤ 100%) | Inhibition ratio (%) Gibberella zeae ([6]; 25 μg/mL): A (80% ≤ A ≤ 100%) | Inhibition ratio (%) Rhizoctonia cerealis ([7]; 1.5625 μg/mL): C (C <70%) | Inhibition ratio (%) Rhizoctonia cerealis ([7]; 6.25 μg/mL): B (70% ≤ B < 80%) | Inhibition ratio (%) Rhizoctonia cerealis ([7]; 25 μg/mL): A (80% ≤ A ≤ 100%) | Inhibition ratio (%) Alternaria alternata ([8]; 1.5625 μg/mL): A (80% ≤ A ≤ 100%) | Inhibition ratio (%) Alternaria alternata ([8]; 6.25 μg/mL): A (80% ≤ A ≤ 100%) | Inhibition ratio (%) Alternaria alternata ([8]; 25 μg/mL): A (80% ≤ A ≤ 100%) | Inhibition ratio (%) Alternaria solani ([9]; 1.5625 μg/mL): A (80% ≤ A ≤ 100%) | Inhibition ratio (%) Alternaria solani ([9]; 6.25 μg/mL): A (80% ≤ A ≤ 100%) | Inhibition ratio (%) Alternaria solani ([9]; 25 μg/mL): A (80% ≤ A ≤ 100%) | Inhibition ratio (%) Phytophthora capsici ([10]; 1.5625 μg/mL): B (70% ≤ B < 80%) | Inhibition ratio (%) Phytophthora capsici ([10]; 6.25 μg/mL): A (80% ≤ A ≤ 100%) | Inhibition ratio (%) Phytophthora capsici ([10]; 25 μg/mL): A (80% ≤ A ≤ 100%) | Inhibition ratio (%) Fusarium wilt of water melon ([11]; 1.5625 μg/mL): A (80% ≤ A ≤ 100%) | Inhibition ratio (%) Fusarium wilt of water melon ([11]; 6.25 μg/mL): A (80% ≤ A ≤ 100%) | Inhibition ratio (%) Fusarium wilt of water melon ([11]; 25 μg/mL): A (80% ≤ A ≤ 100%) | Inhibition ratio (%) Corn big spot ([12]; 1.5625 μg/mL): A (80% ≤ A ≤ 100%) | Inhibition ratio (%) Corn big spot ([12]; 6.25 μg/mL): A (80% ≤ A ≤ 100%) | Inhibition ratio (%) Corn big spot ([12]; 25 μg/mL): A (80% ≤ A ≤ 100%) | Controlling effect % ([13]; 50 mg/L): 82% | Controlling effect % ([13]; 50 mg/L, listed as compound 1): more than 80% | Controlling effect % ([13]; 100 mg/L): 88% | Controlling effect % ([13]; 100 mg/L, listed as compound 1): the same control effect as the current mainstream insecticides | Controlling effect % ([13]; 200 mg/L): 92% | Therapeutic activity ([14]; strain SX18-32 (S)): 60.2% | Therapeutic activity ([14]; strain SX18-59 (S)): 96.8% | Therapeutic activity [14, 16]: 96.8% | Therapeutic activity ([14]; strain SX18-63 (R)): 83.3% | Therapeutic activity [14, 17]: far better therapeutic effect | Protective activity ([15]; strain SX18-32 (S)): 97.4% | Protective activity ([15]; strain SX18-32 (S), listed as compound 1): more than 90% | Protective activity ([15]; strain SX18-59 (S)): 100.0% | Protective activity [15, 16]: more than 90% | Protective activity ([15]; strain SX18-63 (R)): 93.7% | Protective activity [15, 17]: more than 90%
